Here are results for 29 molecules from US20250171437A1 (Agios Pharmaceuticals,Inc., priority 2022, published 2025).

The assay concerns the target T1, human PAH with the R408W mutation (A375 R408W cells) (Homo sapiens, UniProt P00439, R408W).
T1 construct: expressed in transfected cells
T1 sequence (P00439 1-452 R408W): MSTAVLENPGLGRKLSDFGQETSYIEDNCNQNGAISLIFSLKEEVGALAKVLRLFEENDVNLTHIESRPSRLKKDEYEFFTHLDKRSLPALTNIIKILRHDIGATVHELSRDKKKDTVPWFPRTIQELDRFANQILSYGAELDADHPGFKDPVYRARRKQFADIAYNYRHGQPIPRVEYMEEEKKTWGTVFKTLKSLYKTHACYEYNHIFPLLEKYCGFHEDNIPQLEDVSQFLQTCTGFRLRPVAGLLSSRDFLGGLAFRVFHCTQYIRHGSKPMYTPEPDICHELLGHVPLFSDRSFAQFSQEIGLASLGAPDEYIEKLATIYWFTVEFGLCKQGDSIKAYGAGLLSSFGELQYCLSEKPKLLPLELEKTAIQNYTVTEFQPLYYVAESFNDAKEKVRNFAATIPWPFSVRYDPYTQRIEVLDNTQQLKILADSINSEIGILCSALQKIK
Kind of assay: Cell Based Phenylalanine Flux Assay. The following applies: 24 hrs with compound, then 20 μM sepiapterin and 800 μM 13C9,15N-Phenylalanine for 4 hours, 13C-Tyrosine by LC-MS, average where tested multiple times. The method in brief:
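LC-MS quantitation of 13C-tyrosine in media gave AC50 values. Stable A375 R408W PAH cells were preincubated 24 h with compound, then fed 800 μM labelled Phe plus 20 μM sepiapterin for 4 h. Dose curves were 10-point, tested in duplicate, averaged over repeat runs.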

The mark [1] stands for this setting: A375 cells expressing R408W PAH.

Usually AC50 stands for the midpoint of the concentration-response curve, whichever way the signal moves.

A value given as a limit tells only on which side of the number the result lay.

Consider `O=C(c1nnc(-c2ccccn2)o1)N1CCc2[nH]cnc2[C@H]1c1nc2c(F)cc(F)cc2o1` [Example 523, (S)-(4-(4,6-difluorobenzo[d]oxazol-2-yl)-6,7-dihydro-1H-imidazo[4,5-c]pyridin-5(4H)-yl)(5-(pyridin-2-yl)-1,3,4-oxadiazol-2-yl)methanone], for which the AC50 (A375 R408W cells) was 500 to 1000 nM.
For the molecule `O=C(c1cnn2cc(CCN3CC(F)C3)ccc12)N1CCc2[nH]cnc2C1c1nc2cc(F)ccc2o1` (centres unmarked), under setting [1], the AC50 lay within 1000 to 5000 nM.
Regarding `O=C(c1nnc(-c2ccc(C(F)(F)F)cc2)o1)N1CCc2[nH]cnc2[C@H]1c1nc2cc(F)ccc2o1` [Example 90, (S)-(4-(5-fluorobenzo[d]oxazol-2-yl)-6,7-dihydro-1H-imidazo[4,5-c]pyridin-5(4H)-yl)(5-(4-(trifluoromethyl)phenyl)-1,3,4-oxadiazol-2-yl)methanone], where the note is “A375 R408W cells”, the AC50 fell in the range of 500 to 1000 nM.
On the same count and under the same terms, next, `O=C(c1ocnc1C(F)F)N1CCc2[nH]cnc2[C@H]1c1nc2cc(Cl)ccc2o1` [Example 378, (S)-(4-(5-chlorobenzo[d]oxazol-2-yl)-6,7-dihydro-1H-imidazo[4,5-c]pyridin-5(4H)-yl)(4-(difluoromethyl)oxazol-5-yl)methanone]: at most 500 nM; `Cn1cc(-c2ncc(C(=O)N3CCc4[nH]cnc4[C@@H]3c3nc4cc(F)ccc4o3)s2)cn1` [Example 10, (R)-(4-(5-fluorobenzo[d]oxazol-2-yl)-6,7-dihydro-1H-imidazo[4,5-c]pyridin-5(4H)-yl)(2-(1-methyl-1H-pyrazol-4-yl)thiazol-5-yl)methanone]: 1000 to 5000 nM.
For the molecule `Cn1cc(-c2ncc(C(=O)N3CCc4[nH]cnc4C3c3nc4cc(F)ccc4o3)o2)cn1` (centres unmarked), under setting [1], the AC50 is at least 5000 nM.
For `CC(C)(C#N)c1nc(C(F)F)c(C(=O)N2CCc3[nH]cnc3[C@@H]2c2nc3cc(F)ccc3o2)o1` [Example 160, (R)-2-(4-(difluoromethyl)-5-(4-(5-fluorobenzo[d]oxazol-2-yl)-4,5,6,7-tetrahydro-1H-imidazo[4,5-c]pyridine-5-carbonyl)oxazol-2-yl)-2-methylpropanenitrile], the AC50 (A375 R408W cells) lay within 500 to 1000 nM.
On the same count and under the same terms, for `COc1ccc2oc([C@@H]3c4nc[nH]c4CCN3C(=O)c3nnc(-c4cnn(C)c4)o3)nc2c1` [Example 553, (S)-(4-(5-methoxybenzo[d]oxazol-2-yl)-6,7-dihydro-1H-imidazo[4,5-c]pyridin-5(4H)-yl)(5-(1-methyl-1H-pyrazol-4-yl)-1,3,4-oxadiazol-2-yl)methanone] the value was 500 to 1000 nM; for `O=C(c1nnc(-c2ccccn2)o1)N1CCc2[nH]cnc2[C@H]1c1nc2c(F)ccc(F)c2o1` [Example 520, (S)-(4-(4,7-difluorobenzo[d]oxazol-2-yl)-6,7-dihydro-1H-imidazo[4,5-c]pyridin-5(4H)-yl)(5-(pyridin-2-yl)-1,3,4-oxadiazol-2-yl)methanone], at most 500 nM.
For `Cn1nc(C(C)(C)C)nc1C(=O)N1CCc2[nH]cnc2C1c1nc2cccc(F)c2o1` (centres unmarked), the AC50 under setting [1] fell in the range of 1000 to 5000 nM.
Same read-out and setting: for `CN1C2CCC1CN(c1ccc3c(C(=O)N4CCc5[nH]cnc5C4c4nc5cc(F)ccc5o4)cnn3c1)C2` (single isomer, unassigned) the value was at least 5000 nM.
With `FC(F)(F)c1nnc(N2Cc3[nH]cnc3[C@H]2c2nc3ccccc3o2)o1` [Example 946, (S)-2-(5-(5-(trifluoromethyl)-1,3,4-oxadiazol-2-yl)-1,4,5,6-tetrahydropyrrolo[3,4-d]imidazol-4-yl)benzo[d]oxazole], under “A375 R408W cells”, the AC50 was 1000 to 5000 nM.
Take `O=C(c1ocnc1C(F)F)N1CCc2[nH]cnc2[C@H]1c1nc2c(F)cccc2o1` [Example 169, (S)-(4-(difluoromethyl)oxazol-5-yl)(4-(4-fluorobenzo[d]oxazol-2-yl)-6,7-dihydro-1H-imidazo[4,5-c]pyridin-5(4H)-yl)methanone]: the AC50 (A375 R408W cells) was at most 500 nM.
On the same count and under the same terms, for `CNc1cn2ncc(C(=O)N3CCc4[nH]cnc4[C@@H]3c3nc4cc(F)ccc4o3)c2cc1Cl` [Example 206, (R)-(5-chloro-6-(methylamino)pyrazolo[1,5-a]pyridin-3-yl)(4-(5-fluorobenzo[d]oxazol-2-yl)-6,7-dihydro-1H-imidazo[4,5-c]pyridin-5(4H)-yl)methanone] the value was 1000 to 5000 nM.
As for `Cc1cccc2nc([C@H]3c4nc[nH]c4CCN3C(=O)c3cnn4cc(N5CCC(O)CC5)ccc34)oc12` (single isomer, unassigned), the AC50 under setting [1] is at least 5000 nM.
For the molecule `COc1cccc2nc([C@H]3c4nc[nH]c4CCN3C(=O)c3cc(C(F)F)nn3C)oc12` [Example 778, (R)-(3-(difluoromethyl)-1-methyl-1H-pyrazol-5-yl)(4-(7-methoxybenzo[d]oxazol-2-yl)-6,7-dihydro-1H-imidazo[4,5-c]pyridin-5(4H)-yl)methanone], the AC50 (A375 R408W cells) was in the range of 500 to 1000 nM.
Still for that read-out and setting: next, `COCc1ccc2c(C(=O)N3CCc4[nH]cnc4[C@H]3c3nc4cc(C)ccc4o3)cnn2c1` [Example 877, (S)-(6-(methoxymethyl)pyrazolo[1,5-a]pyridin-3-yl)(4-(5-methylbenzo[d]oxazol-2-yl)-6,7-dihydro-1H-imidazo[4,5-c]pyridin-5(4H)-yl)methanone]: 1000 to 5000 nM; `COc1ccc(-c2nc(C(F)F)c(C(=O)N3CCc4[nH]cnc4[C@@H]3c3nc4cc(F)ccc4o3)o2)nc1` [Example 446, (R)-(4-(difluoromethyl)-2-(5-methoxypyridin-2-yl)oxazol-5-yl)(4-(5-fluorobenzo[d]oxazol-2-yl)-6,7-dihydro-1H-imidazo[4,5-c]pyridin-5(4H)-yl)methanone]: at most 500 nM.
On the same count and under the same terms, next, `Cn1nc(C(F)F)nc1C(=O)N1CCc2[nH]cnc2[C@H]1c1nc2cc(F)cc(F)c2o1` [Example 577, (S)-(4-(5,7-difluorobenzo[d]oxazol-2-yl)-6,7-dihydro-1H-imidazo[4,5-c]pyridin-5(4H)-yl)(3-(difluoromethyl)-1-methyl-1H-1,2,4-triazol-5-yl)methanone]: 500 to 1000 nM; `CN1CCN(c2ccc3c(C(=O)N4CCc5[nH]cnc5[C@@H]4c4nc5cc(F)ccc5o4)cnn3c2)CC1(C)C` [Example 140, (R)-(4-(5-fluorobenzo[d]oxazol-2-yl)-6,7-dihydro-1H-imidazo[4,5-c]pyridin-5(4H)-yl)(6-(3,3,4-trimethylpiperazin-1-yl)pyrazolo[1,5-a]pyridin-3-yl)methanone]: at least 5000 nM.
Same read-out and setting: for `CC(C)(O)C1CCN(c2ccc3c(C(=O)N4CCc5[nH]cnc5[C@@H]4c4nc5c(F)cccc5o4)cnn3c2)CC1` [Example 508, (R)-(4-(4-fluorobenzo[d]oxazol-2-yl)-6,7-dihydro-1H-imidazo[4,5-c]pyridin-5(4H)-yl)(6-(4-(2-hydroxypropan-2-yl)piperidin-1-yl)pyrazolo[1,5-a]pyridin-3-yl)methanone] the value was at least 5000 nM.
`Cc1ccc(F)c2oc([C@@H]3c4nc[nH]c4CCN3C(=O)c3ocnc3C(F)F)nc12` [Example 898, (S)-(4-(difluoromethyl)oxazol-5-yl)(4-(7-fluoro-4-methylbenzo[d]oxazol-2-yl)-6,7-dihydro-1H-imidazo[4,5-c]pyridin-5(4H)-yl)methanone]: the AC50 (A375 R408W cells) was at most 500 nM.
Take `O=C(c1cnn2cc(CCN3CCOCC3)ccc12)N1CCc2[nH]cnc2C1c1nc2cc(F)ccc2o1` (centres unmarked): the AC50 under setting [1] is 1000 to 5000 nM.
For the molecule `Cc1cccc2nc([C@@H]3c4nc[nH]c4CCN3C(=O)c3nnc(-c4ccn(C)n4)o3)oc12` [Example 869, (S)-(5-(1-methyl-1H-pyrazol-3-yl)-1,3,4-oxadiazol-2-yl)(4-(7-methylbenzo[d]oxazol-2-yl)-6,7-dihydro-1H-imidazo[4,5-c]pyridin-5(4H)-yl)methanone], where the note is “A375 R408W cells”, the AC50 is at most 500 nM.
As to `O=C(c1ocnc1C(F)F)N1CCc2[nH]cnc2[C@H]1c1nc2ccc(F)c(F)c2o1` [Example 305, (S)-(4-(6,7-difluorobenzo[d]oxazol-2-yl)-6,7-dihydro-1H-imidazo[4,5-c]pyridin-5(4H)-yl)(4-(difluoromethyl)oxazol-5-yl)methanone], the AC50 (A375 R408W cells) is at most 500 nM.
As to `Cc1nc(C(C)(C)O)oc1C(=O)N1CCc2[nH]cnc2C1c1nc2cc(F)ccc2o1` (centres unmarked), the concentration at half-maximal activity (AC50) under setting [1] is 1000 to 5000 nM.
As to `Cc1ccc2oc([C@H]3c4nc[nH]c4CCN3C(=O)c3oc(-c4ccccn4)nc3C(F)F)nc2c1` [Example 738, (R)-(4-(difluoromethyl)-2-(pyridin-2-yl)oxazol-5-yl)(4-(5-methylbenzo[d]oxazol-2-yl)-6,7-dihydro-1H-imidazo[4,5-c]pyridin-5(4H)-yl)methanone], the AC50 (A375 R408W cells) lay in the range of 1000 to 5000 nM.
Regarding `COc1ccc(-c2nc(C(F)F)c(C(=O)N3CCc4[nH]cnc4[C@H]3c3nc4cc(F)ccc4o3)o2)nc1` [Example 445, (S)-(4-(difluoromethyl)-2-(5-methoxypyridin-2-yl)oxazol-5-yl)(4-(5-fluorobenzo[d]oxazol-2-yl)-6,7-dihydro-1H-imidazo[4,5-c]pyridin-5(4H)-yl)methanone], for the setting “A375 R408W cells”, the AC50 is at most 500 nM.
On the same count and under the same terms, for `O=C(c1ocnc1C(F)F)N1CCc2[nH]cnc2[C@H]1c1nc2ccc(F)cc2o1` [Example 163, (S)-(4-(difluoromethyl)oxazol-5-yl)(4-(6-fluorobenzo[d]oxazol-2-yl)-6,7-dihydro-1H-imidazo[4,5-c]pyridin-5(4H)-yl)methanone] the value was at most 500 nM.
